Assay results reported in patent US9023853B2, “Janus kinase 2 (JAK2) inhibitor for the treatment of lupus” (Cephalon, Inc., priority 2010, dated 2015).
Several values for one entry are separate records, joined by “and”; a condition that tells them apart may be missing. Equal values may be shown once.

Experiments:
Assay type in all cases: in vivo, mouse
NZM mice [1] = experiment: Survival in NZM lupus model; settings: for Age (d), MEAN: NZM group mean; for Age: NZM individual mouse (survival; EOS = 310 days of age); for survival at EOS: NZM mice
Description: Six week old lupus-prone, female, MRL/lpr (Jackson Labs, #000485) and non-lupus prone control MRL/MpJ (Jackson Labs, #000486) mice were obtained from Jackson Laboratories (Bar Harbor, Me.) at 6-weeks of age. Spontaneous SLE-prone NZBWF1/J (NZM) (catalog no. 100008) female mice and non-lupus prone (within time from of experiment) NZW/LacJ (catalog no. 001058) female mice were obtained from Jackson Laboratories (Bar Harbor, Me.) at 15-weeks of age. All mice were maintained on a […] light/dark cycle, with food and water available ad libitum. All experimental animal procedures were approved by and in accordance to the regulations of the Institutional Animal Care and Use Committee (IACUC) of Cephalon, Inc; approved IACUC protocol #03-040 and #03-03-041.
The NZM strain acts as a mouse model of genetically-driven, progressive, systemic lupus erythematosus (SLE). The evolution of the disease in NZM mice is characterized by an abnormal polyclonal B cell activation with a high production of various autoantibodies, including those directed against DNA and other nuclear antigens, and against cytoskeleton proteins. Elevated circulating immune complexes can lead to fatal glomerulonephritis in older mice.
(§1) Age mated, female, NZM or NZW/LacJ, mice were matured for the study of lupus nephritis for a total of 7 months or 210 days at which time urine was collected for proteinuria detection. Mice with 0.5-1.0 mg/ml of urine protein as determined by an optical density-based total protein precipitation assay and cross-checked for 30-300 mg/dl of protein as determined by a stick assay were considered proteinuria positive and selected for study entry. Groups were normalized to contain a Gaussian distribution of proteinuria positive animals (i.e., ⅓ low proteinuria, ⅓ medium, ⅓ high) then randomized between groups before ear marking and taking baseline measures including urine and serum collections. A total of five mice from the total population were randomly selected for baseline kidney histology evaluation. Treatments and tests for each group are as described in FIG. 12. Briefly, with a minimum of 10 mice per group, COMPOUND A was administered at 100 mg/kg or 55 mg/kg, both twice a day and orally. […] Vehicle included 3% DMSO, 10% Solutol and 87% PBS. […] End-stage lupus nephritis was evaluated by histopathology and scored by a board certified pathologist for the assessment of total renal damage in diseased animals using the scoring method described by Smith et al (Smith, Dong et al. 2007). […] Day-98 or “end of treatment/study” represents 310 days of age for the NZM animals.

IFNα = experiment: Serum IFNα at EOS in NZM mice; settings: for serum IFNα decrease compared to vehicle: EOS
Description: as §1

NZM mice [2] = experiment: Lung histopathology in NZM mice
Description: For histological analyses, the left kidney and lung (NZM model only) from each animal was removed and fixed in 10% buffered neutral 10% formalin (EMD) for 48 hours on an orbital rocker at 25° C., then washed overnight with running dH2O and stored in 70% ethanol at 4° C. until ready to be processed. Kidney stains used for histological analyses included hematoxylin and eosin (H&E), Periodic Acid Schiff (PAS) and Trichrome stains (Wistar Institute, Philadelphia, Pa.). All 3 stained sections were used by the pathologist for scoring purposes. All histological scoring was performed blinded and by an independent board certified veterinary medical pathologist (Julie Engiles, VMD, DACVP; University of Pennsylvania). […]
(§2) Age mated, female, NZM or NZW/LacJ, mice were matured for the study of lupus nephritis for a total of 7 months or 210 days at which time urine was collected for proteinuria detection. Mice with 0.5-1.0 mg/ml of urine protein as determined by an optical density-based total protein precipitation assay and cross-checked for 30-300 mg/dl of protein as determined by a stick assay were considered proteinuria positive and selected for study entry. […] End-stage lupus nephritis was evaluated by histopathology and scored by a board certified pathologist for the assessment of total renal damage in diseased animals using the scoring method described by Smith et al (Smith, Dong et al. 2007). […]

[3] = tested on: anti-Smith antigen antibodies; experiment: Serum anti-Smith antigen ANA ELISA in NZM mice; settings: p<0.05
Text: The measurement of anti-dsDNA and anti-Smith antigen antibodies was done by an in-house generated custom ELISA assay. Chromatin coated plates were purchased from Inova Diagnostics, Inc. Purified bovine thymus dsDNA (Sigma, St. Louis, […].) or purified bovine Smith antigen (GenWay, San Diego, Calif.) were used as coating antigen for the detection of anti-dsDNA and anti-Smith Ag antibodies respectively. Coated plates were washed with Borate Sulfate Saline (BSS) and blocked with BSS containing 1% Bovine Serum Albumin (BSA) and 0.1% Tween-20 detergent. Standard curves were generated using mouse anti-chromatin antibody (Sigma, 2B1) or 25 week old MRL/lpr serum. Mouse anti-dsDNA antibody (Abcam, Cambridge, Mass.), or mouse anti-Smith antigen antibody (Abcam) were used as standards for each assay. […] Developed plates were read using a Victor-X4 spectrophotometer reading at […] with a reference wavelength of 570 nm. […]
Age mated, female, NZM or NZW/LacJ, mice were matured for the study of lupus nephritis for a total of 7 months or 210 days at which time urine was collected for proteinuria detection. Mice with 0.5-1.0 mg/ml of urine protein as determined by an optical density-based total protein precipitation assay and cross-checked for 30-300 mg/dl of protein as determined by a stick assay were considered proteinuria positive and selected for study entry. […]

plasma cells = experiment: Spleen plasma cells by flow cytometry in NZM mice
Description: Antibodies used for flow cytometry consisted of anti-mouse CD138-APC (eBioscience, San Diego, Calif.), anti-mouse CD19-FITC (eBioscience, San Diego, Calif.), anti-mouse CD38-PE (eBioscience, San Diego, Calif.) and anti-mouse CD45R/B220-Cyc (eBioscience, San Diego, Calif.), Rat IgG1-APC isotype control (eBioscience, San Diego, Calif.), Rat IgG2a-PE isotype control (eBioscience, San Diego, Calif.). All samples were analyzed using an Accuri C6 Flow Cytometer. Complete media was used for all experiments involving the ex vivo culture of splenocytes for all Elispot experiments. Complete media consisted of RPMI1640 (Cellgro, Manassas, Va.), plus 1% Pen-Strep (Cellgro, Manassas, Va.), 1% L-Gln (Cellgro, Manassas, Va.), 1% NEAA (Cellgro, Manassas, Va.), β-ME (Cellgro, Manassas, Va.), plus 10% FBS (Cellgro, Manassas, Va.).
Washed, RBC-lysed splenocytes were stained for plasma cell markers as previously used in published reports (Neubert, Meister et al. 2008). As used herein the term “plasma cell” will refer to the following immunophenotype definition: Plasma cells were defined as live CD19-negative, CD45R/B220-negative, CD138-positive, CD38-positive events for the MRL/lpr model. A total of 200,000-500,000 events were collected per tube/sample. […]
as §2

Structure (SMILES): CN1CCN(c2cccc(Nc3nc4c(-c5ccc(S(C)(=O)=O)cc5)cccn4n3)c2)CC1 [COMPOUND A, [8-(4-methanesulfonyl-phenyl)-[1,2,4]triazolo[1,5-a]pyridin-2-yl]-[3-(4-methyl-piperazin-1-yl)-phenyl]-amine]
- Age (d), MEAN (NZM mice [1]; CMPD A 55 mpk bid): 300.2 days
- Age (d), MEAN (NZM mice [1]; CMPD A 100 mpk bid): 291.8 days
- Age (NZM mice [1]; CMPD A 55 mpk bid, 55 mg/kg): 310 d (9×) and 212 d
- Age (NZM mice [1]; CMPD A 100 mpk bid, 100 mg/kg): 310 d (7×) and 268 d (2×) and 212 d
- survival at EOS (NZM mice [1]; COMPOUND A 55 mg/kg orally twice a day): 90%
- survival at EOS (NZM mice [1]; COMPOUND A 100 mg/kg orally twice a day): 70%
- serum IFNα decrease compared to vehicle (IFNα; COMPOUND A 55 mg/kg): 70.2%
- serum IFNα decrease compared to vehicle (IFNα; COMPOUND A 100 mg/kg): 73.2%
- lung infiltrates (NZM mice [2]; COMPOUND A 55 mg/kg and 100 mg/kg, vs dexamethasone and vehicle): prevented lung infiltrates
- anti-smith antigen ANAs ([3]; COMPOUND A treatment): significantly reduced
- spleen plasma cells decrease compared to vehicle (plasma cells; COMPOUND A 55 mg/kg): 57.6%
- spleen plasma cells decrease compared to vehicle (plasma cells; COMPOUND A 100 mg/kg): 52.9%

Structure (SMILES): O=P1(N(CCCl)CCCl)NCCCO1 (stereo not drawn) [CTX, cyclophosphamide, reference compound]
- Age (d), MEAN (NZM mice [1]; CTX 50 mpk 1 × wk): 284.9 days
- Age (NZM mice [1]; CTX 50 mpk 1 × wk): 227 d and 310 d (7×) and 212 d and 240 d
- survival at EOS (NZM mice [1]; CTX 50 mg/kg once weekly ip): 70%
- serum IFNα reduction (IFNα; CTX 50 mg/kg once weekly ip): Neither standard of care agent (i.e., CTX or DEX) exhibited a significant reduction
- lung infiltrates (NZM mice [2]; CTX 50 mg/kg once weekly ip): prevented lung infiltrates
- anti-smith antigen ANAs ([3]; CTX 50 mg/kg once weekly ip): significantly reduced
- levels of spleen plasma cells (plasma cells; cyclophosphamide 50 mg/kg once weekly ip): the decrease was not significant

Structure (SMILES): C[C@@H]1C[C@H]2[C@@H]3CCC4=CC(=O)C=C[C@]4(C)[C@@]3(F)[C@@H](O)C[C@]2(C)[C@@]1(O)C(=O)CO [Dex, dexamethasone, reference compound]
- Age (d), MEAN (NZM mice [1]; Dex 1.5 mpk 3 × wk): 261.4 days
- Age (NZM mice [1]; Dex 1.5 mpk 3 × wk): 291 d (2×) and 240 d (3×) and 268 d and 310 d (2×)
